The supplement of paper PMC10307832

Experiments:
Assay in all cases: relative viability (nuclei count vs DMSO), 5 days (fraction); higher = more cells survive
[1] = compound: CCn1c(-c2nonc2N)nc2c(C#CC(C)(C)O)ncc(OC[C@H]3CCCNC3)c21 + CC(=O)c1c(C)c2cnc(Nc3ccc(N4CCNCC4)cn3)nc2n(C2CCCC2)c1=O [Palbociclib] (partner 0.5 µM)
Outline: (§1)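 One day after seeding in 1536-well plates, lung cancer cell lines were dosed by pin tool. Dosing was either single-drug or a fixed anchor-drug dose plus five library-drug doses (not always all listed) in √10 steps. After 5 days, nuclei were stained in one fix-and-stain step and counted on 4× images, and relative viability is the nuclei count of treated wells over that of vehicle wells, given as the median of duplicate plates.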

[2] = compound: CCn1c(-c2nonc2N)nc2c(C#CC(C)(C)O)ncc(OC[C@H]3CCCNC3)c21 + CCNC(=O)c1noc(-c2cc(C(C)C)c(O)cc2O)c1-c1ccc(CN2CCOCC2)cc1 [Luminespib] (partner 0.01 µM)
Outline: as §1

[3] = compound: CCn1c(-c2nonc2N)nc2c(C#CC(C)(C)O)ncc(OC[C@H]3CCCNC3)c21 + N=C(N)NC(=N)NCCc1ccccc1 [Phenformin] (partner 250 µM)
Outline: as §1

BAM7 + Lapatinib = compound: CCOC1=CC=CC=C1N=NC2=C(NN(C2=O)C3=NC(=CS3)C4=CC=CC=C4)C [BAM7] + CS(=O)(=O)CCNCc1ccc(-c2ccc3ncnc(Nc4ccc(OCc5cccc(F)c5)c(Cl)c4)c3c2)o1 [Lapatinib] (partner 2 µM)
Outline: as §1

Row | Cell Line | relative viability ([1]; first compound 0.01 µM) | relative viability ([1]; first compound 0.03162 µM) | relative viability ([1]; first compound 0.1 µM) | relative viability ([1]; first compound 0.3162 µM) | relative viability ([1]; first compound 1 µM) | relative viability ([2]; first compound 0.01 µM) | relative viability ([2]; first compound 0.03162 µM) | relative viability ([2]; first compound 0.1 µM) | relative viability ([2]; first compound 0.3162 µM) | relative viability ([2]; first compound 1 µM) | relative viability ([3]; first compound 0.01 µM) | relative viability ([3]; first compound 0.03162 µM) | relative viability ([3]; first compound 0.1 µM) | relative viability ([3]; first compound 0.3162 µM) | relative viability ([3]; first compound 1 µM) | relative viability (BAM7 + Lapatinib; first compound 0.5 µM) | relative viability (BAM7 + Lapatinib; first compound 5 µM) | relative viability (BAM7 + Lapatinib; first compound 15.81 µM) | relative viability (BAM7 + Lapatinib; first compound 50 µM)
1 | NCI-H2342 | 0.521 | 0.549 | 0.551 | 0.679 | 0.512 | 0.91 | 0.678 | 0.67 | 0.625 | 0.757 | 0.532 | 0.627 | 0.598 | 0.545 | 0.574 |  |  |  | 
2 | SK-MES-1 | 0.306 | 0.298 | 0.299 | 0.318 | 0.308 | 0.907 | 0.904 | 0.674 | 0.712 | 0.743 | 0.654 | 0.642 | 0.66 | 0.617 | 0.673 | 0.488 | 0.438 | 0.423 | 0.505
3 | HCC-366 | 0.378 | 0.419 | 0.396 | 0.359 | 0.344 |  |  |  |  |  | 0.573 | 0.606 | 0.637 | 0.62 | 0.617 | 1.09 | 1.1 | 1.03 | 0.984
4 | 201T | 0.35 | 0.378 | 0.33 | 0.352 | 0.36 | 1.04 | 1.03 | 1.02 | 1.03 | 1.03 | 0.455 | 0.438 | 0.437 | 0.435 | 0.431 | 1.05 | 1.04 | 0.973 | 1.02
5 | HCC-827 | 0.473 | 0.507 | 0.412 | 0.431 | 0.466 | 0.533 | 0.895 | 0.729 | 0.476 | 0.633 | 0.395 | 0.37 | 0.388 | 0.402 | 0.402 | 0.205 | 0.2 | 0.205 | 0.202
6 | NCI-H647 | 0.349 | 0.401 | 0.416 | 0.309 | 0.337 | 0.327 | 0.177 | 0.203 | 0.127 | 0.193 | 0.595 | 0.573 | 0.554 | 0.399 | 0.345 | 1.06 | 0.926 | 1.01 | 1.06
7 | NCI-H2023 | 0.357 | 0.379 | 0.331 | 0.205 | 0.262 | 0.636 | 0.981 | 0.664 | 0.67 | 0.498 | 0.4 | 0.409 | 0.412 | 0.3 | 0.34 | 1.05 | 0.751 | 0.737 | 1.09
8 | NCI-H520 | 0.185 | 0.2 | 0.164 | 0.153 | 0.165 | 0.188 | 0.222 | 0.188 | 0.238 | 0.182 | 0.424 | 0.561 | 0.303 | 0.236 | 0.233 | 0.804 | 0.904 | 0.93 | 1.03
9 | RERF-LC-KJ | 1.02 | 1.06 | 1.02 | 0.915 | 1.05 | 1.12 | 1.31 | 1.27 | 1.19 | 1.1 | 0.391 | 0.408 | 0.438 | 0.356 | 0.416 | 0.868 | 0.815 | 0.802 | 0.791
10 | A-427 | 0.426 | 0.508 | 0.533 | 0.515 | 0.559 | 0.944 | 1.03 | 0.77 | 0.867 | 0.946 | 0.315 | 0.387 | 0.263 | 0.339 | 0.326 | 1.01 | 1.09 | 1.03 | 1.09
11 | NCI-H441 | 0.225 | 0.206 | 0.227 | 0.193 | 0.207 | 0.434 | 0.312 | 0.349 | 0.379 | 0.367 | 0.824 | 0.888 | 0.833 | 0.801 | 0.715 |  |  |  | 
12 | NCI-H1703 |  |  |  |  |  |  |  |  |  |  |  |  |  |  |  | 1.1 | 1.17 | 0.936 | 1.2
13 | NCI-H1792 | 0.607 |  | 0.601 | 0.586 | 0.701 | 0.593 |  | 0.566 | 0.416 | 0.47 | 0.203 | 0.291 | 0.258 | 0.262 | 0.299 | 0.963 | 0.914 | 1.09 | 0.842
14 | Calu-6 |  |  |  |  |  |  |  |  |  |  |  |  |  |  |  | 1.06 | 1.09 | 1.05 | 1.07
15 | SK-LU-1 | 0.405 | 0.455 | 0.323 | 0.414 | 0.39 | 0.22 | 0.2 | 0.211 | 0.22 | 0.215 | 0.552 | 0.575 | 0.455 | 0.48 | 0.537 | 0.78 | 1.02 | 0.846 | 0.897
16 | PC-3 [JPC-3] | 0.529 |  | 0.556 | 0.557 | 0.531 | 0.734 | 0.726 | 0.709 | 0.67 | 0.591 | 0.504 | 0.451 | 0.469 | 0.463 | 0.474 | 0.425 | 0.472 | 0.427 | 0.412
